Assay results as given in ChEMBL document CHEMBL2069231, “Combining pharmacophore, docking and substructure search approaches to identify and optimize novel B-RafV600E inhibitors” (Bioorg Med Chem Lett, 2012).

Columns and labels:
[1] = test system: Serine/threonine-protein kinase B-raf (Homo sapiens), P15056 [V600E]; assay: Inhibition of BRAF V600E mutant at 10 uM by ELISA
[2] = test system: Serine/threonine-protein kinase B-raf (Homo sapiens), P15056 [V600E]; assay: Inhibition of BRAF V600E mutant at 1 uM by ELISA
[3] = target: Serine/threonine-protein kinase B-raf (Homo sapiens, UniProt P15056, V600E); assay: Inhibition of BRAF V600E mutant by ELISA
Serine/threonine-protein kinase B-raf, sequence (P15056 2-766 V600E limits assumed): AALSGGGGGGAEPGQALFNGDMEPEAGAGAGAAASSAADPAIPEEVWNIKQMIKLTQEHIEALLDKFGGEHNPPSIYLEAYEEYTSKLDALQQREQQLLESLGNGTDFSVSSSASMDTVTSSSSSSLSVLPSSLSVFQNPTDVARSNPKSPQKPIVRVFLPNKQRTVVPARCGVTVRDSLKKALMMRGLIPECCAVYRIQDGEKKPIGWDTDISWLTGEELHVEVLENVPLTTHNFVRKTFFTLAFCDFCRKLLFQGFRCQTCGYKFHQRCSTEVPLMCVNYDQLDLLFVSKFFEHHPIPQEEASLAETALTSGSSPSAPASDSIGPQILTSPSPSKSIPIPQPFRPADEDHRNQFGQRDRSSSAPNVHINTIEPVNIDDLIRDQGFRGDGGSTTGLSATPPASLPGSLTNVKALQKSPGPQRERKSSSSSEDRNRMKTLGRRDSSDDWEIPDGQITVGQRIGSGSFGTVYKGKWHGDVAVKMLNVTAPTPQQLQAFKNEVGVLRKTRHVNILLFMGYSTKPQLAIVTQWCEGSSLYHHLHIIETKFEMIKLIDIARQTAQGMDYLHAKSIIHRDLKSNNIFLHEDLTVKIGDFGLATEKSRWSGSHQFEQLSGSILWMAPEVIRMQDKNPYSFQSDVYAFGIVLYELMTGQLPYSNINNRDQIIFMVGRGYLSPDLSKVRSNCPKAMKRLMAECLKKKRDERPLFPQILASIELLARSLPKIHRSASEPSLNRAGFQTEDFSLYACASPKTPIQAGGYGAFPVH

Serine/threonine-protein kinase B-raf (Homo sapiens), P15056 [V600E], sequence (P15056 whole entry V600E): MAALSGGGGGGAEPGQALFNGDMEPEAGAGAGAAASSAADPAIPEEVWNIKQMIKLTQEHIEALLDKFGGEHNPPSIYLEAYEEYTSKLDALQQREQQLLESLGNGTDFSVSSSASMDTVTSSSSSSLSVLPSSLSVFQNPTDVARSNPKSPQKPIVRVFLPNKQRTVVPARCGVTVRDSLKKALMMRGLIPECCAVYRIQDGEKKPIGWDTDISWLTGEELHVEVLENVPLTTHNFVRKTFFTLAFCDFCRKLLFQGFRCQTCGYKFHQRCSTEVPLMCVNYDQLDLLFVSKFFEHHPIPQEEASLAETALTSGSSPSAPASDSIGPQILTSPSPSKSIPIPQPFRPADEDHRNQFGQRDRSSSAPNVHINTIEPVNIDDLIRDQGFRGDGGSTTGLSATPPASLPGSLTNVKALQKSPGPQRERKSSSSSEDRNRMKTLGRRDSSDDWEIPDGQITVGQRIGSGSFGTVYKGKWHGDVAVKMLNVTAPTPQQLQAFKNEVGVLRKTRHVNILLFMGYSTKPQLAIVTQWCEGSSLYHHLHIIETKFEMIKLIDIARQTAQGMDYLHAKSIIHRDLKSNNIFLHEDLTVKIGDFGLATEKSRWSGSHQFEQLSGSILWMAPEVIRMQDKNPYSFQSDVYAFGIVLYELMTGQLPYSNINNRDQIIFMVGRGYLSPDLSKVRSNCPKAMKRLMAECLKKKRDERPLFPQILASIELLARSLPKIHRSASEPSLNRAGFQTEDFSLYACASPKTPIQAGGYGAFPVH

Compound	inhibition [1] [%]	inhibition [2] [%]	IC50 [3] [nM]
Cc1ccc(N2C(=O)/C(=C\c3ccc(-c4cccc(C(=O)O)c4)o3)C(=O)NC2=S)cc1	98	33	4020
O=C1NC(=S)NC(=O)C1=Cc1cccc(OC(=O)c2cccc(F)c2)c1	19	17	
COc1cc(C=C2C(=O)NC(=S)NC2=O)ccc1OCCO	34	< 5	
COc1cccc(N2C(=O)/C(=C\c3ccc(CN(CCC#N)S(C)(=O)=O)o3)C(=O)NC2=S)c1	74	32	1840
CS(=O)(=O)N(CCC#N)Cc1ccc(/C=C2/C(=O)NC(=S)N(c3ccc(Br)cc3)C2=O)o1	96	88	440
COc1ccc(C=C2C(=O)NC(=S)NC2=O)cc1OCc1ccc(Br)cc1	87	12	
COc1cc(C=C2C(=O)NC(=S)NC2=O)ccc1OC(F)F	17	14	
CCOc1ccc(C=C2C(=O)NC(=S)NC2=O)cc1Cl	71	12	
O=C1NC(=S)N(c2ccc(Br)cc2)C(=O)/C1=C\c1ccc(-c2cccc(C(=O)O)c2)o1	100	43	1800
O=C1NC(=S)NC(=O)C1=Cc1ccc(OCC(=O)N2CCCC2)cc1	52	9	
O=C1NC(=S)NC(=O)C1=Cc1ccc(OCc2ccccc2)c(Cl)c1	91	31	
COc1ccc(C=C2C(=O)NC(=S)NC2=O)cc1OC(=O)c1cccc(Cl)c1	88	9	
COc1ccc(C=C2C(=O)NC(=S)NC2=O)cc1OC(=O)c1ccccc1	77	46	4010
CCN(C)c1ccc(-c2ccc(C=C3C(=O)NC(=S)NC3=O)cc2)cc1	< 5	< 5	
COC(=O)c1cc(Br)ccc1-c1ccc(C=C2C(=O)NC(=S)NC2=O)o1	86	61	
COc1cc(C=C2C(=O)NC(=S)NC2=O)ccc1OC(=O)c1cccc(F)c1	28	< 5	
CCOc1cc(C=C2C(=O)NC(=S)NC2=O)ccc1O	68	15	
Cc1c(Cl)cccc1N1C(=O)/C(=C\c2ccc(-c3ccc(C(=O)O)cc3)o2)C(=O)NC1=S	100	38	2490
Cc1ccc(N2C(=O)/C(=C\c3ccc(-c4ccc(C(=O)O)c(Cl)c4)o3)C(=O)NC2=S)cc1	99	28	3240
Cc1ccc(N2C(=O)/C(=C\c3ccc(CN(CCC#N)S(C)(=O)=O)o3)C(=O)NC2=S)cc1Cl	99	68	310
O=C1NC(=S)N(c2ccc(Br)cc2)C(=O)/C1=C\c1ccc(-c2ccccc2C(=O)O)o1	100	32	3450
Cc1ccc([N+](=O)[O-])cc1-c1ccc(C=C2C(=O)NC(=S)NC2=O)o1	57	51	
Cc1ccc(N2C(=O)/C(=C\c3ccc(-c4ccc(F)cc4)o3)C(=O)NC2=S)cc1	74	13	4110

Compound	inhibition [1] [%]	inhibition [2] [%]	IC50 [3] [nM]
O=C1NC(=S)N(c2cccc(Cl)c2Cl)C(=O)/C1=C\c1ccc(-c2ccc(C(=O)O)cc2)o1	100	46	1540
Cc1ccc(Cl)cc1-c1ccc(C=C2C(=O)NC(=S)NC2=O)o1	75	54	
CC(C)COC(=O)c1ccc(-c2ccc(C=C3C(=O)NC(=S)NC3=O)o2)cc1	37	31	
O=C1NC(=S)N(c2ccc(Br)cc2)C(=O)/C1=C\c1ccc(-c2ccc(C(=O)O)c(Cl)c2)o1	89	28	4750
O=C1NC(=S)NC(=O)C1=Cc1ccc(-c2cccc([N+](=O)[O-])c2)o1	85	48	830
CCOC(=O)c1ccccc1-c1ccc(/C=C2/C(=O)NC(=S)N(c3ccc(C)cc3)C2=O)o1	88	56	1020
Cc1ccc(N2C(=O)/C(=C\c3ccc(-c4ccc(C(=O)O)cc4)o3)C(=O)NC2=S)cc1	97	35	1600
N#Cc1ccccc1-c1ccc(C=C2C(=O)NC(=S)NC2=O)o1	93	60	740
Cc1cccc(C)c1OCCOc1ccc(C=C2C(=O)NC(=S)NC2=O)cc1	95	42	
CCOc1ccc(N2C(=O)/C(=C\c3ccc(CN(CCC#N)S(C)(=O)=O)o3)C(=O)NC2=S)cc1	91	43	1140
O=C1NC(=S)NC(=O)C1=Cc1ccc(-c2ccc([N+](=O)[O-])cc2)o1	91	59	730
O=C1NC(=S)NC(=O)C1=Cc1ccc(Oc2ccc([N+](=O)[O-])cn2)cc1	41	< 5	
Cc1cccc(N2C(=O)/C(=C\c3ccc(CN(CCC#N)S(C)(=O)=O)o3)C(=O)NC2=S)c1	84	55	500
COC(=O)c1ccccc1-c1ccc(/C=C2/C(=O)NC(=S)N(c3ccc(C)cc3)C2=O)o1	88	37	1650
Cc1ccc(N2C(=O)/C(=C\c3ccc(-c4ccc(Cl)c(C(=O)O)c4)o3)C(=O)NC2=S)cc1	71	5	
CCCS(=O)(=O)Nc1ccc(F)c(C(=O)c2c[nH]c3ncc(-c4ccc(Cl)cc4)cc23)c1F	92	72	
O=C1NC(=S)N(c2ccc(Br)cc2)C(=O)/C1=C\c1ccc(-c2ccc(C(=O)O)cc2)o1	97	38	2230
O=C1NC(=S)NC(=O)C1=Cc1ccc(-c2ccccc2[N+](=O)[O-])o1	93	55	670
CCOc1cc(C=C2C(=O)NC(=S)NC2=O)ccc1OCC(=O)Nc1cccc(C)c1	81	23	
COc1ccc(C=C2C(=O)NC(=S)NC2=O)cc1OC(=O)c1ccc(C)cc1	38	< 5	
CS(=O)(=O)N(CCC#N)Cc1ccc(/C=C2/C(=O)NC(=S)N(c3ccc(Cl)c(Cl)c3)C2=O)o1	97	60	820
Cc1ccc(N2C(=O)/C(=C\c3ccc(CN(CCC#N)S(C)(=O)=O)o3)C(=O)NC2=S)cc1	99	48	970
COc1cc(C=C2C(=O)NC(=S)NC2=O)ccc1OCCC(C)C	81	21	
